Legend:
MEK = conditions: Favata et al., 1998; cited from earlier work
Ras-transformed cells = Ras-transformed cells (Alessi et al., 1995); cited from earlier work
human tumor cell lines = conditions: variety of human tumor cell lines, in vitro (Liu et al., 1998); cited from earlier work
MAPK pathway = test: Time course of MAPK pathway inhibition after treatment; assay type: cell-based
Text: (2) A “Ras signaling pathyway inhibitor” is defined herein as an agent that blocks the activity of any protein in the signal transduction pathway shown in FIG. 1. A particularly preferred Ras signaling pathway inhibitor is a “MEK inhibitor”, which is defined herein as an agent that blocks the in vitro enzyme activity of a MEK (MAPK/ERK kinase) protein (preferably inhibiting MEK1 and MEK2), and thus blocks the activation of a MAPK protein as evidenced by a block in the phosphorylation of the MAPK protein. This can be detected by western blot analysis for phosphorylated MAPK as described in, e.g., Dudley et al., Proc Natl Acad Sci. 92:7686-7689 (1995), and Favata et al., J Bio Chem. 273:18623-32(1998).
“Sustained effect” is defined herein as a prolonged/enhanced apoptotic response to combination treatment with a FPT I and a MEK1,2 inhibitor in comparison to single treatment alone. The consequences of a “sustained effect” can be monitored either by measurement of MAPK activity or cell death or apoptosis, as described in previously. The effective time course for inhibition of MAPK pathway by the individual drugs is dose dependent. […] (See, e.g., FIG. 6.

[1] = tested on: human tumor cell lines as xenografts; conditions: immuno-compromised mice (Liu et al., 1998); cited from earlier work

Compound: N#CC(=C(/N)Sc1ccccc1N)/C(C#N)=C(\N)Sc1ccccc1N [U0126]
- affinity of binding to MEK relative to PD098059 (MEK): higher affinity than PD098059

Compound: COc1cccc(-c2cc(=O)c3ccccc3o2)c1N [PD098059]
- effect on growth factor-mediated proliferation and anchorage-independent growth (Ras-transformed cells): blocks

Compound: NC(=O)N1CCC(CC(=O)N2CCC(C3c4ncc(Br)cc4CCc4cc(Cl)cc(Br)c43)CC2)CC1 (stereo not drawn) [SCH 66336]
- inhibition of anchorage-independent growth (human tumor cell lines): inhibition of anchorage-independent growth
- duration of the MAPK inhibitory effect after treatment (MAPK pathway): ≤ 72 h
- time of optimal MAPK pathway inhibition after treatment (MAPK pathway; dose dependent): 12 to 18 h
- inhibition of growth as xenografts [1]: inhibition

Reference: US6777415B2, “Methods of inducing cancer cell death and tumor regression” (priority 2000, dated 2004)
